Test results from ChEMBL document CHEMBL3988442, “University of Dundee, Small-Polar-MMV Screening Library” (2021).

Key:
[1] = microbe, parasite or virus in culture; settings: Mycobacterium tuberculosis, 96 h, read-out: pIC50 (converted)
[2] = microbe, parasite or virus in culture; settings: Mycobacterium tuberculosis, 72 h, read-out: pIC50 (converted)

Compound | IC50 [1] [µM] | IC50 [2] [µM]
CN(C)S(=O)(=O)NCCNc1cccc(Br)c1 | 208 | 154
COc1coc(CN2CCCC(CCc3ccccc3F)C2)cc1=O (stereo not drawn) | 13.3 | 47.3
CCS(=O)(=O)N(C)C(=O)CCc1c[nH]c2ccccc12 | 97.3 | 44.8
CC(=O)N1CCCC1c1cccc(Cc2ccccc2F)n1 (stereo not drawn) | 39 | 29.2
COc1cccc(N2CCC(N)CC2)c1 | 213 | 426
CC(C)N1CC(C(=O)NCc2ccc(S(=O)(=O)N(C)C)cc2)CC1=O (stereo not drawn) | > 50.1 | > 50.1
CC(C)CCNC(=O)CCn1cc(Br)ccc1=O | 105 | 142
COC(=O)N1CC(NC(=O)c2cc(C(C)=O)c[nH]2)C1 | > 501 | > 501
O=C(CCNCCO)c1ccccc1 | > 501 | 137
CN(C)S(=O)(=O)NCCNc1ccc2ccccc2n1 | 326 | 419
CCn1nc(C)c2nc(C)nc(NCCc3ccc(C)cc3)c21 | 42.5 | 47.4
COC(=O)C1CCN(C(=O)Cc2cccc(F)c2)CC1 | > 501 | 179
Cc1ccc(F)c(S(=O)(=O)N2C[C@H](C3CC3)[C@@H](N)C2)c1 | > 501 | > 501
Cc1ccc(S(=O)(=O)N2CCOc3ccncc32)cc1 | 457 | 99.3
CCCc1nnc(NC2CCN(C(=O)OCC)CC2)o1 | 72 | 180
COCCN1C[C@@H]2CN(c3cc(OC)ncn3)CCC[C@]2(C(=O)O)C1 | > 50.1 | > 50.1
Cc1ccc(C(C)NC(=O)Nc2nccn(C)c2=O)o1 (stereo not drawn) | > 501 | > 501
O=C(Nc1ccnc(CO)c1)c1ccc(F)cc1I | 433 | 367
N#Cc1cccnc1N1CCOC(c2nccs2)C1 (stereo not drawn) | > 501 | 138
NC(=O)c1ccc(-n2ccnc2-c2cccc(O)c2)cc1N1CCCC1 | > 50.1 | > 50.1
O=C(NCCO)c1ccc(OCc2cccs2)cc1 | > 501 | 378
CCNc1nnc(SCc2ncccc2C)s1 | 58 | 96.1
Fc1cccc(Cl)c1CNCCOc1ccccn1 | > 50.1 | > 50.1
CN1CC(=O)Nc2cccnc21 | 314 | 157
CN1CCN(S(=O)(=O)N2CCCC2)Cc2ccccc21 | 271 | 155
CC(c1ccccn1)N(C)C(=O)NCCn1c(=O)oc2ccccc21 (stereo not drawn) | > 50.1 | > 50.1

Compound | IC50 [1] [µM] | IC50 [2] [µM]
CCC(CO)NCc1ccc(-c2ccc(Br)cc2)o1 (stereo not drawn) | 27.5 | 44.3
Cc1cc(S(=O)(=O)NC2CCS(=O)(=O)C2)c(C)s1 (stereo not drawn) | 310 | 97.4
CCc1ccc(CN2CCN(C(=O)N(C)C)CC2)o1 | > 501 | 206
COc1cccc(CN2CCC3(CC2)OCC(C)O3)c1 (stereo not drawn) | 244 | 394
CCNc1ncc(C(=O)N2CCOC(CCCC(C)C)C2)cn1 (stereo not drawn) | 43 | > 50.1
O=S(=O)(NCCNc1ccc(-n2cccc2)nn1)c1cccs1 | 13.4 | 14
CC(C)Sc1nc(-c2ccccn2)no1 | 312 | 320
NC(=O)NC(=O)CCN(Cc1ccccc1)CC1CCOCC1 | 35.7 | 28.7
Cn1ccc(C(=O)NCc2csc(Br)c2)cc1=O | > 501 | > 501
CN(C)c1cc(C2CCCN(C(=O)c3noc4c3CCCC4)C2)ccn1 (stereo not drawn) | 35.7 | 40
COc1ccc(S(=O)(=O)N2CC(NCC3CC3)C2)cc1 | > 501 | 209
CC(C)Oc1ccc(S(=O)(=O)N(C)C(C)CN)cc1 (stereo not drawn) | 273 | 162
O=C(Cc1cccs1)Nc1cnn(C2CCOC2)c1 (stereo not drawn) | > 50.1 | > 50.1
O=C(Cn1cccn1)NCCc1ccc2c(c1)OCO2 | > 501 | 251
CS(=O)(=O)NC[C@H]1OC[C@@H]2CCN(CCc3ccccc3)C[C@@H]21 | > 50.1 | > 50.1
Cc1nc(N(C)C/C=C/c2ccccc2)c2cnn(C)c2n1 | > 50.1 | > 50.1
CCS(=O)(=O)NCCOc1ccc2c(c1)OCO2 | 204 | 230
O=C(CNC(=O)c1cccs1)c1ccccc1 | > 501 | > 501
NS(=O)(=O)c1ccc(NC(=O)Cn2ccnc2)cc1 | > 501 | > 501
Clc1ccc(N2CCN(Cc3ncc[nH]3)CC2)nc1 | > 501 | 311
COC(=O)NCCc1ccccc1OC | > 501 | 98.5
COC(=O)CNc1ccccc1 | 123 | 463
CN1CCCN(Cc2cc(F)cc(F)c2)CC1=O | 211 | 169
NCCCc1ccccn1 | > 501 | > 501
O[C@@H]1CNC[C@H]1n1ccnn1 | 289 | 286
CCNc1cccc(OC)c1 | 144 | 109

Compound | IC50 [1] [µM] | IC50 [2] [µM]
CC(C)(C)OC(=O)N1CC2(CCC(CN)O2)C1 (stereo not drawn) | 263 | 231
CSCc1cccc(CNC(=O)c2cc[nH]n2)c1 | > 501 | 308
CCSCCOc1ccc(CO)nc1 | > 501 | 216
O=C(CCC(=O)c1ccc(F)cc1)NCc1ccco1 | > 501 | 219
COc1ccc(C(N)CO)c2ccccc12 (stereo not drawn) | 313 | 193
COCc1ccc(CNc2cnn(C(C)(C)C)c(=O)c2Cl)cc1 | 15.3 | > 50.1
O=C(COCC(F)(F)F)NCc1cn2ccccc2n1 | > 501 | 92.3
c1ccc2c(N3CCNCC3)cncc2c1 | 290 | 460
CC(C)NC(=O)c1ccc(N2CCCCC2=O)cc1 | > 501 | > 501
C=C(C)COc1ccc(C(=O)NCC[C@@H](C)CO)cc1 | 283 | 440
N#Cc1ccc(N2CCC3(CC2)COCCN3Cc2cccnc2)cc1 | > 50.1 | > 50.1
COc1ccc(CN2CC[C@@H](O)[C@@H]2Cc2cnn(C)c2)cc1 | > 50.1 | > 50.1
CCS(=O)(=O)c1ccc(CNc2ncccc2Cl)cc1 | > 501 | 242
CCN(CC)S(=O)(=O)c1ccc(CNC(=O)c2cc(C)on2)cc1 | 26.2 | > 50.1
NCc1nc(-c2ccc(Cl)cc2)c[nH]1 | 264 | 128
COc1ccc(C)cc1CN1CCN(S(N)(=O)=O)CC1 | 184 | 65.2
CC(C)c1cc(C(=O)N(C)C(C)c2ccon2)on1 (stereo not drawn) | 437 | > 501
N#Cc1ccccc1N1CCCC(N)C1 (stereo not drawn) | 142 | 79.7
Cc1cc(Cl)ccc1NC(=O)CN1CCN(C)CC1 | > 501 | > 501
NC(=O)CC1CCN(C(=O)Cc2ccc(Cl)cc2)CC1 | > 501 | > 501
Cc1cc(C)cc(OCC(=O)N2CCOCC2)c1 | > 501 | 155
Cc1ccccc1OCC1CCCN(c2cc(N)nc(N)n2)C1 (stereo not drawn) | 30.1 | 35.7
Cc1ccc(N2CCN(C(=O)CCC(F)(F)F)C(C)C2)cc1 (stereo not drawn) | > 50.1 | > 50.1
COCCOCCn1nc(C)c(C#N)c1N | > 501 | > 501
CC(C)NCc1nc(-c2ccc3c(c2)OCO3)c[nH]1 | > 50.1 | > 50.1
CCCc1cc(CN(C)C(=O)c2cccs2)n[nH]1 | 437 | 293

Compound | IC50 [1] [µM] | IC50 [2] [µM]
CSCCC(=O)NCc1ccc(C)s1 | > 501 | > 501
O=C(CCc1ccccc1)N1CC(c2cccnc2)C1 | 25.3 | 45.7
NC(CN1CCOCC1)c1ccccc1 (stereo not drawn) | > 501 | > 501
COc1ccc(CCCC(=O)N2CCC(CN)C2)cc1 (stereo not drawn) | > 501 | 230
CC(NC(=O)c1ccc(Cl)c(I)c1)C(=O)N(C)C (stereo not drawn) | > 501 | > 501
COC(=O)c1cnc(/C=C/c2ccc(C(=O)O)cc2)s1 | 27.3 | 26.6
CC1Cc2ccccc2N1CCN (stereo not drawn) | 204 | 172
CCC(CO)Nc1nccc(C(F)(F)F)n1 (stereo not drawn) | > 501 | > 501
CCNc1ccnc(C(=O)NCc2ccccc2)c1 | 148 | 169
CSC1=Nc2c(cnn2-c2cccc(Cl)c2)C2=NCCCN12 | 28.3 | 5.78
O=S(=O)(NCCNc1ccc(-n2cccc2)nn1)c1ccccc1 | 16.5 | 15.5
COCCOc1ccc(C(=O)NCc2ccco2)cc1 | 61.7 | 109
COCCNC(=O)c1cc(-c2cccc(O)c2)on1 | 157 | 231
Cc1nc(-c2cccc(C(=O)O)c2)cc(C2CCN(C(C)C)C2)n1 (stereo not drawn) | > 50.1 | > 50.1
CC1COC2(CCN(C(=O)c3ccc(Cl)s3)CC2)O1 (stereo not drawn) | 45.1 | 25.7
Cc1nn(C)c2nc(NCCSc3ncn[nH]3)sc12 | > 501 | > 501
CN(Cc1cccnc1)C(=O)c1cc(Cl)c[nH]1 | 333 | 281
NC(=O)Nc1cccc(C(=O)Nc2ccc(Cl)cn2)c1 | 132 | 126
CC(C)c1nsc(NC2CCOC3(CCCC3)C2)n1 (stereo not drawn) | 6.74 | 12
OC1CCN(Cc2ccc3c(c2)CCC3)C1 (stereo not drawn) | > 501 | 213
O=C(c1ccccn1)N1CCC2(CCCC2)CC1 | 160 | 245
Cc1nc(Cn2cc(S(=O)(=O)N(C)C)ccc2=O)cs1 | > 501 | 326
CCOCCC(=O)N1CCN(c2ccc(F)cc2)CC1 | 129 | 11.3
CC(C)Nc1nc(N2CCCC2)nc2c1CN(c1ncc(F)cn1)CC2 | 28.3 | 46.4
Nc1cc(-c2cccnc2)on1 | > 501 | 284
CSc1nnc(CN(C)CCO)s1 | 56.6 | > 501
